Among the test systems are MCF7; MDA-MB-231; PC-3; DU-145; NCI/ADR-RES; SK-MEL-2; HCT-15; KM12; CCRF-CEM; NCI-H226; T47D; SF-268; ACHN; K562; HOP-92; Hs-578T.
Assay in all cases: NCI anticancer screen, dose series, 48 h

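Growth conditions: 96-well plates. Treatment: test compound, 48 hours, 5 concentrations. Analysis: linear interpolation between bracketing concentrations; unreached endpoints set to highest concentration. The concentration for 50% growth inhibition is given as GI50.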 Calls of active or inactive are those of the source. No stated cut-off is given here; in the data, active = GI50 up to about 1.1 µM and inactive = higher.

In the case of `CCCN(CCCCN1C(=O)c2ccccc2C1=O)CC1COc2ccccc2O1` (stereo not drawn), the GI50 in the experiment with MCF7 was 53.1 µM (inactive); in the experiment on MDA-MB-231, > 100 µM (inactive); in the experiment with PC-3, 51.9 µM (inactive); with DU-145, > 100 µM (inactive); with NCI/ADR-RES, 61.1 µM (inactive); in the experiment with SK-MEL-2, > 100 µM (inactive). Also, the GI50 in the experiment on HCT-15 is 52.2 µM; with KM12, > 100 µM (inactive); with CCRF-CEM, 25.8 µM (inactive); in the experiment with NCI-H226, 53 µM (inactive); in the experiment with T47D, 42.9 µM (inactive); with SF-268, > 100 µM (inactive). Further, the GI50 was > 100 µM (inactive) in the experiment with ACHN, 42.1 µM (inactive) in the experiment on K562, 29.4 µM (inactive) in the experiment with HOP-92 and > 100 µM (inactive) with Hs-578T.

Consider `COc1ccc2[nH]c3c(C)c4ccnc(NCCCN(C)CCCN)c4c(C)c3c2c1`, for which the GI50 with MCF7 was 0.0263 µM (active); in the experiment with MDA-MB-231 it was 0.0873 µM (active); in the experiment on PC-3 it was 0.259 µM (active); with DU-145, 0.196 µM (active); with NCI/ADR-RES, 0.394 µM (active); in the experiment on SK-MEL-2 it was 0.336 µM (active). The GI50 was 0.258 µM with HCT-15; 0.258 µM (active) in the experiment with KM12; 0.0726 µM (active) with CCRF-CEM; 0.0458 µM (active) in the experiment with NCI-H226; 0.213 µM (active) in the experiment on T47D; 0.138 µM (active) with SF-268. Also, the GI50 was 0.119 µM (active) in the experiment with ACHN, 0.118 µM (active) with K562, 0.13 µM (active) in the experiment on HOP-92 and 0.0364 µM (active) in the experiment with Hs-578T.

`C=C(Cl)C(Cl)(CBr)CCC(Cl)C(C)(C)Cl` (stereo not drawn): the GI50 with MCF7 is 0.879 µM (active); in the experiment with MDA-MB-231, 2.16 µM (inactive); in the experiment on PC-3 it was 1.53 µM (inactive); with DU-145, 1.35 µM (inactive); with NCI/ADR-RES, 3.01 µM (inactive); in the experiment on SK-MEL-2, 0.238 µM (active). Besides, the GI50 is 3.57 µM in the experiment on HCT-15; 0.375 µM (active) in the experiment with KM12; 8.63 µM (inactive) in the experiment with CCRF-CEM; 22.2 µM (inactive) with NCI-H226; 0.256 µM (active) in the experiment on T47D; 1.08 µM (active) in the experiment with SF-268. For the same compound, the GI50 was 1.77 µM (inactive) in the experiment with ACHN, 2.22 µM (inactive) in the experiment on K562, 1.16 µM (inactive) in the experiment on HOP-92 and 0.0237 µM (active) with Hs-578T.

For `Oc1ccc(/N=N/c2ccc(Cl)cc2)cc1`, the GI50 in the experiment with MCF7 is 17.7 µM (inactive); in the experiment with MDA-MB-231 it was 10.8 µM (inactive); in the experiment on PC-3, 14.9 µM (inactive); in the experiment with DU-145, 16.4 µM (inactive); in the experiment on NCI/ADR-RES it was 18.1 µM (inactive); in the experiment with SK-MEL-2 it was 14.2 µM (inactive). In addition, the GI50 is 14.7 µM with HCT-15; 13 µM (inactive) with KM12; 4.63 µM (inactive) in the experiment on CCRF-CEM; 17.7 µM (inactive) with NCI-H226; 15 µM (inactive) in the experiment on T47D; 17.7 µM (inactive) in the experiment on SF-268. The GI50 in the experiment on ACHN is 12.9 µM (inactive); in the experiment with K562 it was 19.6 µM (inactive); in the experiment with HOP-92 it was 12.7 µM (inactive); in the experiment on Hs-578T it was 28.8 µM (inactive).

With `O=C(N/N=C\c1ccc(Cl)cc1)Nc1ccc2ccccc2c1`, the GI50 in the experiment with MCF7 was 87.9 µM (inactive); in the experiment with MDA-MB-231, 41.9 µM (inactive); in the experiment with PC-3 it was 30.3 µM (inactive); in the experiment with DU-145, > 100 µM (inactive); in the experiment on NCI/ADR-RES, 49.3 µM (inactive); in the experiment with SK-MEL-2, 80.4 µM (inactive). Moreover, the GI50 with HCT-15 is more than 100 µM; with KM12, 79.3 µM (inactive); with CCRF-CEM it was > 100 µM (inactive); with NCI-H226 it was > 100 µM (inactive); with T47D it was > 100 µM (inactive); with SF-268, 26.9 µM (inactive). In addition, the GI50 is 43.6 µM (inactive) in the experiment with ACHN, > 100 µM (inactive) in the experiment on K562, 29.6 µM (inactive) with HOP-92 and 26.9 µM (inactive) with Hs-578T.

`CC(=O)O[C@H]1[C@@H](OC2CCCC2(c2ccccc2)c2ccccc2)O[N+]([O-])=C[C@@]12COCc1cc3c(cc12)OCO3` (stereo partly drawn): the GI50 was 6.38 µM (inactive) in the experiment on MCF7; 6.12 µM (inactive) with MDA-MB-231; 4.2 µM (inactive) with PC-3; 6.32 µM (inactive) in the experiment on DU-145; 3.52 µM (inactive) in the experiment on NCI/ADR-RES; 4.17 µM (inactive) with SK-MEL-2. Besides, the GI50 in the experiment on HCT-15 was 6.37 µM; with KM12, 4.14 µM (inactive); in the experiment with CCRF-CEM it was 2.83 µM (inactive); in the experiment on NCI-H226, 4.79 µM (inactive); with T47D, 4.23 µM (inactive); in the experiment with SF-268 it was 2.87 µM (inactive). The GI50 was 7.85 µM (inactive) in the experiment with ACHN, 2.92 µM (inactive) in the experiment with K562, 5.13 µM (inactive) with HOP-92 and 2.65 µM (inactive) in the experiment with Hs-578T.

As to `CC(=O)OCC(OC(C)=O)C(OC(C)=O)C(OC(C)=O)C(/C=N\Nc1nc2ccccc2c(=O)[nH]1)=N/Nc1nc2ccccc2c(=O)[nH]1` (stereo not drawn), the GI50 in the experiment on MCF7, in the experiment on MDA-MB-231, in the experiment with PC-3, in the experiment with DU-145, in the experiment with NCI/ADR-RES and in the experiment on SK-MEL-2 was > 100 µM (inactive) in each case. The GI50 with HCT-15 was more than 100 µM; in the experiment on KM12, 97.7 µM (inactive); in the experiment with CCRF-CEM, > 100 µM (inactive); in the experiment with NCI-H226, > 100 µM (inactive); in the experiment on T47D, > 100 µM (inactive); in the experiment on SF-268, > 100 µM (inactive). The GI50 in the experiment on ACHN, in the experiment on K562, in the experiment on HOP-92 and in the experiment on Hs-578T was > 100 µM (inactive) each time.

As to `Cc1ccc(O)c(C(c2cc(C)ccc2O)c2cc([N+](=O)[O-])ccc2O)c1`, the GI50 with MCF7 is 14.5 µM (inactive); in the experiment with MDA-MB-231 it was 0.0604 µM (active); with PC-3, 9.02 µM (inactive); in the experiment on DU-145 it was 17.3 µM (inactive); in the experiment on NCI/ADR-RES it was 21.1 µM (inactive); with SK-MEL-2, 13.7 µM (inactive). In addition, the GI50 was 16.3 µM in the experiment with HCT-15; 7.74 µM (inactive) in the experiment with KM12; 13.6 µM (inactive) with CCRF-CEM; 14.4 µM (inactive) with NCI-H226; 16.9 µM (inactive) in the experiment on T47D; 7.62 µM (inactive) in the experiment on SF-268. Also, the GI50 with ACHN was 13.2 µM (inactive); with K562 it was 23.1 µM (inactive); in the experiment on HOP-92, 14.8 µM (inactive); in the experiment with Hs-578T it was 7.71 µM (inactive).

With `CC(=O)OC1COC(n2nc(/C=C/c3ccc(Cl)cc3)c(=O)n(/N=C/c3ccccc3)c2=S)C(OC(C)=O)C1OC(C)=O` (stereo not drawn), the GI50 with MCF7, in the experiment with MDA-MB-231, in the experiment on PC-3, with DU-145, in the experiment with NCI/ADR-RES and in the experiment on SK-MEL-2 was > 100 µM (inactive) throughout. Besides, the GI50 in the experiment on HCT-15 was more than 100 µM; in the experiment on KM12, > 100 µM (inactive); with CCRF-CEM it was > 100 µM (inactive); in the experiment with NCI-H226, > 100 µM (inactive); with T47D, > 100 µM (inactive); with SF-268, > 100 µM (inactive). Besides, the GI50 in the experiment on ACHN, in the experiment on K562, in the experiment with HOP-92 and with Hs-578T was > 100 µM (inactive) in each case.

`N=C(N)NCCCC(NC(=O)OCCCCn1ccc(N)nc1=O)C(=O)O` (stereo not drawn): the GI50 with MCF7, in the experiment with MDA-MB-231, with PC-3, with DU-145, in the experiment on NCI/ADR-RES and in the experiment with SK-MEL-2 was > 100 µM (inactive) throughout. Moreover, the GI50 with HCT-15 was more than 100 µM; with KM12, > 100 µM (inactive); in the experiment with CCRF-CEM it was > 100 µM (inactive); in the experiment with NCI-H226, 4.26 µM (inactive); with T47D, > 100 µM (inactive); with SF-268 it was > 100 µM (inactive). For the same compound, the GI50 in the experiment with ACHN, in the experiment on K562, with HOP-92 and in the experiment on Hs-578T was > 100 µM (inactive) each time.

Regarding `CCN(CC)CCCNc1ccc([N+](=O)[O-])c2nc3ccccc3c(N)c12`, the GI50 in the experiment on MCF7 was 0.402 µM (active); with MDA-MB-231, 0.442 µM (active); with PC-3 it was 0.804 µM (active); with DU-145, 1.05 µM (active); in the experiment on NCI/ADR-RES, 0.668 µM (active); in the experiment on SK-MEL-2, 1.14 µM (inactive). Also, the GI50 in the experiment on HCT-15 was 0.883 µM; in the experiment on KM12, 0.392 µM (active); in the experiment with CCRF-CEM it was 0.45 µM (active); in the experiment on NCI-H226, 2.67 µM (inactive); in the experiment on T47D, 0.867 µM (active); in the experiment with SF-268, 1.23 µM (inactive). In addition, the GI50 is 0.324 µM (active) with ACHN, 0.478 µM (active) in the experiment with K562, 1.43 µM (inactive) in the experiment on HOP-92 and 0.257 µM (active) in the experiment with Hs-578T.

As for `N#CC(NC12CC3CC(CC(C3)C1)C2)c1ccccc1` (stereo not drawn), the GI50 in the experiment with MCF7, in the experiment on MDA-MB-231, in the experiment with PC-3, in the experiment on DU-145, in the experiment with NCI/ADR-RES and in the experiment with SK-MEL-2 was > 100 µM (inactive) throughout. The GI50 was more than 100 µM with HCT-15; > 100 µM (inactive) in the experiment on KM12; 20.8 µM (inactive) with CCRF-CEM; > 100 µM (inactive) in the experiment on NCI-H226; > 100 µM (inactive) in the experiment with T47D; > 100 µM (inactive) with SF-268. The GI50 was > 100 µM (inactive) in the experiment on ACHN, > 100 µM (inactive) in the experiment with K562, 94.2 µM (inactive) with HOP-92 and > 100 µM (inactive) with Hs-578T.

`Nc1ccn(C=C=CCO)c(=O)n1`: the GI50 with MCF7, in the experiment on MDA-MB-231, in the experiment on PC-3, with DU-145, in the experiment on NCI/ADR-RES and in the experiment on SK-MEL-2 was > 100 µM (inactive) throughout. The GI50 in the experiment on HCT-15 was more than 100 µM; in the experiment with KM12, > 100 µM (inactive); with CCRF-CEM, 7.43 µM (inactive); in the experiment with NCI-H226, > 100 µM (inactive); in the experiment with T47D, > 93.8 µM (inactive); in the experiment with SF-268, > 100 µM (inactive). In addition, the GI50 with ACHN was > 100 µM (inactive); in the experiment with K562, > 100 µM (inactive); in the experiment with HOP-92 it was > 66.4 µM (inactive); with Hs-578T it was > 100 µM (inactive).

These data come from ChEMBL document CHEMBL1201862, “PubChem BioAssay data set” (2004).
